Data as given in patent US6620828B2, “Thiazole compounds and pharmaceutical compositions for inhibiting protein kinases and methods for their use” (Agouron Pharmaceuticals, Inc., priority 1999, dated 2003).

Key:
[1] = target: T1, unphosphorylated VEGF-R2Δ50 (FLVK) (Homo sapiens, UniProt P35968, DEL940-989/E990V); assay: VEGF-R2 coupled spectrophotometric assay, unphosphorylated enzyme (FLVK); assay type: biochemical; conditions: for inhibition at 0.05 µM: at 50 nM
T1 construct: VEGF-R2Δ50 contains residues 806-939 and 990-1171; made in house; host or cells: baculovirus/insect cells
T1 sequence (P35968 with tags, fused parts or gaps DEL940-989/E990V limits assumed): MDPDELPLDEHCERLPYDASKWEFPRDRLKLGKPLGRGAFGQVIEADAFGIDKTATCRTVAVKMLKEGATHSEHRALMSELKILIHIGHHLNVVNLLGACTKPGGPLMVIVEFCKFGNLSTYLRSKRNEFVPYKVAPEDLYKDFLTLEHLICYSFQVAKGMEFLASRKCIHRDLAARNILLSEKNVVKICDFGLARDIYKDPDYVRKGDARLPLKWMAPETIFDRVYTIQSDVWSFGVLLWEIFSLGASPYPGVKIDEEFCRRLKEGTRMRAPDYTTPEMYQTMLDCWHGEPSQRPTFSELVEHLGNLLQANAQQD
Text: VEGF-R2 Construct for Assay: This construct determines the ability of a test compound to inhibit tyrosine kinase activity. A construct (VEGF-R2Δ50) of the cytosolic domain of human vascular endothelial growth factor receptor 2 (VEGF-R2) lacking the 50 central residues of the 68 residues of the kinase insert domain was expressed in a baculovirus/insect cell system. Of the 1356 residues of full-length VEGF-R2, VEGF-R2Δ50 contains residues 806-939 and 990-1171, and also one point mutation (E990V) within the kinase insert domain relative to wild-type VEGF-R2. Autophosphorylation of the purified construct was performed by incubation of the enzyme at a concentration of 4 μM in the presence of 3 mM ATP and 40 mM MgCl2 in 100 mM Hepes, pH 7.5, containing 5% glycerol and 5 mM DTT, at 4° C. for 2 h. […] See Parast et al., Biochemistry, 37, 16788-16801 (1998).
The production of ADP from ATP that accompanies phosphoryl transfer was coupled to oxidation of NADH using phosphoenolpyruvate (PEP) and a system having pyruvate kinase (PK) and lactic dehydrogenase (LDH). The oxidation of NADH was monitored by following the decrease of absorbance at 340 nm (e340=6.22 cm^−1 mM^−1) using a Beckman DU 650 spectrophotometer. Assay conditions for phosphorylated VEGF-R2Δ50 (indicated as FLVK-P in the tables below) were the following: 1 mM PEP; 250 μM NADH; 50 units of LDH/mL; 20 units of PK/mL; 5 mM DTT; 5.1 mM poly(E4Y1); 1 mM ATP; and 25 mM MgCl2 in 200 mM Hepes, pH 7.5. Assay conditions for unphosphorylated VEGF-R2Δ50 (indicated as FLVK in the tables) were the following: 1 mM PEP; 250 μM NADH; 50 units of LDH/mL; 20 units of PK/mL; 5 mM DTT; 20 mM poly(E4Y1); 3 mM ATP; and 60 mM MgCl2 and 2 mM MnCl2 in 200 mM Hepes, pH 7.5. Assays were initiated with 5 to 40 nM of enzyme. Ki values were determined by measuring enzyme activity in the presence of varying concentrations of test compounds. The data were analyzed using Enzyme Kinetic and Kaleidagraph software.

[2] = system: human umbilical vein endothelial cells (HUVEC); assay: HUVEC proliferation assay; assay type: cell-based; conditions: Homo sapiens, HUVEC
Summary of the method: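 Exponentially growing HUVEC were serum-starved 24 h (F12K + 1% FBS), pre-treated 1 h with compound (0.1% DMSO final), then stimulated with 6 ng/ml VEGF. Proliferation was read 72 h later by MTT reduction (A595). IC50 came from seven 0.5-log concentrations in triplicate; screens gave % inhibition relative to VEGF-only and starved wells.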

[3] = target: T2, phosphorylated VEGF-R2Δ50 (FLVK-P) (Homo sapiens, UniProt P35968, DEL940-989/E990V); assay: VEGF-R2 coupled spectrophotometric (FLVK-P) assay; assay type: biochemical; conditions: for Ki: Table 1, spectrophotometric assay
T2 construct: VEGF-R2Δ50 contains residues 806-939 and 990-1171; made in house; host or cells: baculovirus/insect cells
T2 sequence (P35968 with tags, fused parts or gaps DEL940-989/E990V limits assumed): as above
Summary of the method: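 Baculovirus-expressed human VEGF-R2Δ50 (residues 806-939/990-1171, E990V) was autophosphorylated with 3 mM ATP, 40 mM MgCl2 for 2 h at 4° C. ADP formation was coupled via PK/LDH to NADH oxidation, read at 340 nm, with 5.1 mM poly(E4Y1), 1 mM ATP, 25 mM MgCl2, Hepes pH 7.5. Ki came from activity across compound concentrations.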

[4] = Table 3, some entries 'Slow binder'

SMILES | Ki [1, 4] | IC50 ([2]; Table 3) | also measured
COc1cc(Nc2nc(N)c(-c3nc(-c4cc(NC(=O)OC(C)(C)C)ccc4C)no3)s2)cc(OC)c1OC [B(6), 3-(2-methyl-5-(tert-butyloxycarboxyamino)-phenyl)-5-[2-[(3,4,5 trimethoxyphenyl)-amino]-4-amino-5-thiazolyl]-1,2,4-oxadiazole] | 0.61 nM | 56 nM | 
COc1cc(Nc2nc(N)c(-c3nc(-c4cc(NC(=O)OC(C)(C)C)c(F)cc4F)no3)s2)cc(OC)c1OC [B(13), (5-{5-[4-Amino-2-(3,4,5-trimethoxy-phenylamino)-thiazol-5-yl]-[1,2,4]oxadiazol-3-yl}-2,4-difluoro-phenyl)-carbamic acid tert-butyl ester] | 1.3 nM | 300 nM | 
COc1cc(Nc2nc(N)c(-c3nc(-c4cc(NC(=O)OC(C)(C)C)c(Cl)cc4Cl)no3)s2)cc(OC)c1OC [B(15), (5-{5-[4-Amino-2-(3,4,5-trimethoxy-phenylamino)-thiazol-5-yl]-[1,2,4]oxadiazol-3-yl}-2,4-dichloro-phenyl)-carbamic acid tert-butyl ester] | 1.7 nM | 100 nM | 
COc1cccc(C(=O)Nc2ccc(C)c(-c3noc(-c4sc(NC(C)C)nc4N)n3)c2)c1 [B(22), N-{3-[5-(4-Amino-2-isopropylamino-thiazol-5-yl)-[1,2,4]oxadiazol-3-yl]-4-methyl-phenyl}-3-methoxy-benzamide] |  | > 1000 nM | inhibition at 0.05 µM ([1]; Table 3): 54%
COc1cc(Nc2nc(N)c(-c3nc(-c4cccc(-c5nc(C)n[nH]5)c4)no3)s2)cc(OC)c1OC [B(37)] |  | > 1000 nM | inhibition at 0.05 µM ([1]; Table 3): 36%
COc1cc(Nc2nc(N)c(-c3nc(-c4cccc(-c5nc(C(C)C)n[nH]5)c4)no3)s2)cc(OC)c1OC [B(38), 5-{3-[3-(5-isopropyl-2H-[1,2,4]triazol-3-yl)-phenyl]-[1,2,4]oxadiazol-5-yl}-N2-(3.4,5-trimethoxy-phenyl)-thiazole-2,4-diamine] |  | > 700 nM | inhibition at 0.05 µM ([1]; Table 3): 13%
COc1cc(Nc2nc(N)c(-c3nc(-c4cccc(-c5nc(CC(C)C)n[nH]5)c4)no3)s2)cc(OC)c1OC [B(39)] | 6.3 nM | > 100 nM | 
COc1cc(Nc2nc(N)c(-c3nc(-c4cc(N)ccc4C)no3)s2)cc(OC)c1OC [C(6), 3-(3-amino-6-methyl-phenyl)-5-[2-[(3,4,5 trimethoxyphenyl)-amino]-4-amino-5-thiazolyl]-1,2,4-oxadiazole] | 33 nM | 300 nM | 
COc1cc(Nc2nc(N)c(-c3nc(-c4cc(N)ccc4Cl)no3)s2)cc(OC)c1OC [C(7), 5-[3-(5-Amino-2-chloro-phenyl)-[1,2,4]oxadiazol-5-yl]-N2-(3,4,5-trimethoxy-phenyl)-thiazole-2,4-diamine] | 17 nM | 300 nM | 
COc1cc(Nc2nc(N)c(-c3nc(-c4cc(N)c(F)cc4F)no3)s2)cc(OC)c1OC [C(8), 5-[3-(5-Amino-2,4,-difluoro-phenyl)-[1,2,4]oxadiazol-5-yl]-N2-(3,4,5-trimethoxy-phenyl)-thiazole-2,4-diamine] |  | > 700 nM | inhibition at 0.05 µM ([1]; Table 3): 21%
COc1cc(Nc2nc(N)c(-c3nc(-c4cc(N)c(F)cc4Cl)no3)s2)cc(OC)c1OC [C(9), 5-[3-(5-Amino-2-chloro-4-fluoro-phenyl)-[1,2,4]oxadiazol-5-yl]-N-(3,4,5-trimethoxy-phenyl)-thiazole-2,4-diamine] | 8 nM | 300 nM | 
C#CCCCC(=O)Nc1cccc(-c2noc(-c3sc(Nc4cc(OC)c(OC)c(OC)c4)nc3N)n2)c1 [D(62), Hex-5-ynoic acid (3-{5-[4-amino-2-(3,4,5-trimethoxy-phenylamino)-thiazol-5-yl]-[1,2,4]oxadiazol-3-yl}-phenyl)-amide] |  | 500 nM | inhibition at 0.05 µM ([1]; Table 3): 20%
Nc1nc(Nc2cccc(-c3nn[nH]n3)c2)sc1-c1nc(-c2cccc(NC(=O)c3cccc(Cl)c3)c2)no1 [D(63), N-[3(5-{4-Amino-2-[3-(2H-tetrazol-5-yl)-phenylamino]-thiazol-5-yl]-[1,2,4]oxadiazol-3-yl)-phenyl]-3-chloro-benzamide] |  | > 10000 nM | inhibition at 0.05 µM ([1]; Table 3): 51%
COc1cc(Nc2nc(N)c(-c3nc(-c4cccc(NC(=O)c5cccc(C#N)c5)c4)no3)s2)cc(OC)c1OC [D(68)] | 0.69 nM | > 100 nM | 
COc1cc(Nc2nc(N)c(-c3nc(-c4cccc(NC(=O)c5ccc(CN6CCOCC6)cc5)c4)no3)s2)cc(OC)c1OC [D(76)] | 2.7 nM | > 1000 nM | 
CNC(=O)Nc1nc(N)c(-c2nc(-c3cccc(NC(=O)c4ccc(Cl)s4)c3)cs2)s1 [F(1), 5-Chloro-thiophene-2-carboxylic acid {3-[4′-amino-2′-(3-methyl-ureido)-[2,5′]bithiazolyl-4-yl]-phenyl}-amide] |  |  | Ki ([1]; Table 1): 1.4 nM; IC50 ([2]; Table 1): 29 nM; Ki [3]: 0.91 nM
CC(=O)Nc1nc(N)c(-c2nc(-c3cccc(NC(=O)c4ccc(Cl)s4)c3)cs2)s1 [F(2), N-[3-(2′-Acetylamino-4′-amino-[2,5′]bithiazolyl-4-yl)-phenyl]-5-chloro-thiophene-2-carboxamide] |  |  | Ki ([1]; Table 1): 4.71 nM; IC50 ([2]; Table 1): 86 nM; Ki [3]: 3.9 nM
Cc1cccc(C(=O)Nc2cccc(-c3noc(-c4sc(NC(=O)Nc5ccccc5)nc4N)n3)c2)c1 [F(12), N-(3-{5-[4-Amino-2-(3-phenyl-ureido)-thiazol-5-yl]-[1,2,4]oxadiazol-3-yl}-phenyl)-3-methyl-benzamide] | 2.2 nM | > 300 nM | 
Cc1cccc(C(=O)Nc2cccc(-c3noc(-c4sc(NC(=O)NCc5ccccc5)nc4N)n3)c2)c1 [F(14), N-(3-{5-[4-Amino-2-(3-benzyl-ureido)-thiazol-5-yl]-[1,2,4]oxadiazol-3-yl}-phenyl)-3-methyl-benzamide] | 0.36 nM | 150 nM | 
COc1cccc(C(=O)Nc2cc(-c3noc(-c4sc(NC(=O)NCC(C)C)nc4N)n3)c(F)cc2F)c1 [O(7), N-(5-{5-[4-Amino-2-(3-isobutyl-ureido)-thiazol-5-yl]-[1,2,4]oxadiazol-3-yl}-2,4-difluoro-phenyl)-3-methoxy-benzamide] | 0.16 nM | 5.2 nM | 
COc1cccc(C(=O)Nc2cc(-c3noc(-c4sc(NC(=O)NCc5cccnc5)nc4N)n3)c(F)cc2F)c1 [O(9), N-(5-{5-[4-Amino-2-(3-pyridin-3-ylmethyl-ureido)-thiazol-5-yl]-[1,2,4]oxadiazol-3-yl}-2,4-difluoro-phenyl)-3-methoxy-benzamide] | 0.42 nM | 4.3 nM | 
COc1cccc(C(=O)Nc2cc(-c3noc(-c4sc(NC(=O)NCCO)nc4N)n3)c(F)cc2F)c1 [O(10), N-[5-(5-{4-Amino-2-[3-(2-hydroxy-ethyl)-ureido]-thiazol-5-yl}-[1,2,4]oxadiazol-3-yl)-2,4-difluoro-phenyl]-3-methoxy-benzamide] | 94 nM | 6.7 nM | 
COc1cccc(C(=O)Nc2cc(-c3noc(-c4sc(NC(=O)N[C@H]5CC[C@H](O)CC5)nc4N)n3)c(F)cc2F)c1 [O(11), N-[5-(5-{4-Amino-2-[3-(trans-4-hydroxy-cyclohexyl)-ureido]-thiazol-5-yl}-[1,2,4]oxadiazol-3-yl)-2,4-difluoro-phenyl]-3-methoxy-benzamide] | 0.45 nM | 14 nM | 
CC[C@H](CO)NC(=O)Nc1nc(N)c(-c2nc(-c3cc(NC(=O)c4cccc(OC)c4)c(F)cc3F)cs2)s1 [O(21), N-(5-{4′-Amino-2′-[3-((R)-1-hydroxymethyl-propyl)-ureido]-[2,5′]bithiazolyl-4-yl}-2,4-difluoro-phenyl)-3-methoxy-benzamide] | 1.1 nM |  | inhibition at 0.05 µM ([3]; Table 3, at 50 nM): 61%
